Source: US12011441B2, “Pimobendan for the reduction of heart size and/or the delay of onset of clinical symptoms in patients with asymptomatic heart failure due to mitral valve disease” (Boehringer Ingelheim Vetmedica GmbH, priority 2016, dated 2024)

Test system: dogs with MMVD and echocardiographic and radiographic evidence of cardiomegaly
Excerpt: Vertebral heart sum, another measure of heart size, was obtained at regular intervals—every eight months—from those animals that remained in the study. There are various ways in which this can be compared between groups. The most useful way to summarise and compare the average vertebral heart score in each group for the duration of the study is to generate an “area under the curve” value that represents a single summary statistic for each dog from which more than two measurements were obtained [Matthews J N et al., BMJ 1990, 300(6719): 230-235]. This method has been used previously in veterinary studies [Häggström J et al., J Vet Intern Med 2013, 27(6): 1441-1451].

## COc1ccc(-c2nc3ccc(C4=NNC(=O)CC4C)cc3[nH]2)cc1 (centres unmarked) [pimobendan, 4,5-dihydro-6-[2-(4-methoxyphenyl)-1H-benzimidazol-5-yl]-5-methyl-3(2H)-pyridazinone]
Average vertebral heart score over the duration of the study, placebo 11.90, P = 0.0009
  VHS Median: 11.54
Averaged over the entire duration of the study (area under the curve), dogs remaining in the study
  difference in median vertebral heart score vs placebo: approximately 0.35 vertebrae
dog, in vivo
  rate or type of potential adverse events observed: no difference between groups
  safety and tolerability: safe and well tolerated
Measured over the first 35 days of the study, P<0.0001
  heart size compared to the placebo group: reduction in heart size
